# Experimental data from PubChem BioAssay (NCI).
# Several values for one entry are separate records, joined by “and”; a condition that tells them apart may be missing. Equal entries are not always repeated.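 Each compound was tested at five concentrations against cells in 96-well plates for 48 hours. GI50 = concentration required for 50% inhibition of growth. TGI: concentration producing complete growth inhibition.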
# Experiments:
# Assay in all cases: NCI tumour cell line growth inhibition, 48 h
# ACHN renal = test system: ACHN renal
# CAKI-1 renal = test system: CAKI-1 renal
# MDA-MB-231 breast = test system: MDA-MB-231 breast
# NCI-H23 lung = test system: NCI-H23 lung
# NCI/ADR-RES ovarian = test system: NCI/ADR-RES ovarian
# OVCAR-4 ovarian = test system: OVCAR-4 ovarian
# OVCAR-8 ovarian = test system: OVCAR-8 ovarian
# SK-OV-3 ovarian = test system: SK-OV-3 ovarian
# UACC-257 melanoma = test system: UACC-257 melanoma
Compound,TGI (ACHN renal) [µM],TGI (CAKI-1 renal),TGI (MDA-MB-231 breast) [µM],TGI (NCI-H23 lung) [µM],TGI (NCI/ADR-RES ovarian) [µM],TGI (OVCAR-4 ovarian) [µM],TGI (OVCAR-8 ovarian) [µM],TGI (SK-OV-3 ovarian),TGI (UACC-257 melanoma) [µM],GI50 (ACHN renal),GI50 (CAKI-1 renal),GI50 (NCI-H23 lung),GI50 (NCI/ADR-RES ovarian),GI50 (OVCAR-8 ovarian),GI50 (SK-OV-3 ovarian),GI50 (UACC-257 melanoma)
N#Cc1c(-c2ccccc2)c2c([nH]c1=O)-c1cc([N+](=O)[O-])ccc1CCC2,83.6,> 100 µM,> 100,71.1,71.5,> 100,> 100,> 100 µM,> 100,–,–,–,–,–,–,–
O=C(CC(C(=O)c1ccco1)c1ccco1)c1ccco1 (stereo not given),> 100,> 100 µM,> 100,> 100,> 100,> 100,> 100,> 100 µM,> 100,–,–,–,–,–,–,–
S=C1NC2=C(CSC/C2=C\c2ccccc2)C(c2ccccc2)N1 (stereo not given),> 100,> 100 µM,> 100,> 100,> 100,> 100,> 100,> 100 µM,58.8,–,–,–,–,–,–,–
C=CCN1C(=O)/C(=C/c2ccc(C)cc2)N=C1SC1OC(COC(C)=O)C(OC(C)=O)C(OC(C)=O)C1OC(C)=O (stereo not given),> 100,> 100 µM and 63.4 µM,> 100,> 100,> 100,64.1,> 100,> 100 µM and 85.4 µM,> 100,> 27.6 µM and 67.3 µM,4.88 µM and 11.2 µM,> 100 µM and 27.1 µM,> 100 µM and 32.5 µM,5.59 µM and 31.5 µM,> 100 µM and 28.9 µM,> 73 µM and 32.9 µM
CC(C)C(N)C(=O)NC(CCC(=O)NCCCCC(N)C(=O)NCCCNc1ccc([N+](=O)[O-])c2[nH]c3ccccc3c(=O)c12)C(N)=O (stereo not given),> 100,> 100 µM,> 100,> 100,> 100,> 100,> 100,> 100 µM,> 100,–,–,–,–,–,–,–
Cc1c(-c2ccccc2)[nH]n(C2=NCCN2)c1=O,> 100,> 100 µM,> 100,> 100,> 100,> 100,> 100,> 100 µM,> 100,–,–,–,–,–,–,–
CC1=NNC(=O)C1C1CC(c2c[nH]c3ccccc23)=NN=C1Cl (stereo not given),> 100,> 100 µM,> 100,> 100,> 100,–,> 100,> 100 µM,> 100,–,–,–,–,–,–,–
c1ccc([P+](CCCCCCCC[P+](c2ccccc2)(c2ccccc2)c2ccccc2)(c2ccccc2)c2ccccc2)cc1,> 100,> 100 µM,> 100,> 52.8,> 100,> 100,> 100,> 100 µM,> 37.7,–,–,–,–,–,–,–
CC1(C)N=C2C(=O)c3c([nH]c4ccccc34)[C@]3(C)CCC1CC23 (stereo not given in full),> 6.25,> 6.25 µM,> 6.25,> 6.25,> 6.25,> 6.25,> 6.25,–,> 6.25,–,–,–,–,–,–,–
COC(=O)[C@H](Cc1ccccc1)NC(=O)N(CCC#N)CCN(C(=O)N[C@@H](Cc1ccccc1)C(=O)OC)c1ccccc1,33.9,41 µM,71,93.6,> 100,69.2,> 100,> 100 µM,37.5,–,–,–,–,–,–,–
CN(C)CCCNC(=O)c1c(O)c2ccccc2n(C)c1=O,> 100,> 100 µM,> 100,> 100,> 100,> 100,> 100,> 100 µM,> 100,–,–,–,–,–,–,–
CN1N=C(c2ccncc2)OC1c1ccccc1F (stereo not given),> 100,–,> 100,> 100,> 100,> 100,> 100,> 100 µM,–,–,–,–,–,–,–,–
COC(=O)C1(O)C(c2ccccc2)=NC2(C)CCCC21 (stereo not given),–,> 100 µM,> 100,> 100,> 100,> 100,> 100,> 100 µM,> 100,–,–,–,–,–,–,–
Cc1cc(C)c(/C=C(\C(=C/c2c(C)cc(C)cc2C)[N+](=O)[O-])[N+](=O)[O-])c(C)c1,> 100,> 100 µM,> 100,> 100,–,> 100,–,> 100 µM,> 100,–,–,–,–,–,–,–
COc1cccc2c1OCC1Cc3ccccc3OC21 (stereo not given),–,> 100 µM,> 100,> 100,> 100,–,> 100,> 100 µM,65.3,–,–,–,–,–,–,–
CCOC(=O)C1CCC(=O)N1C(=O)c1ccccc1Cl (stereo not given),> 100,> 100 µM,> 100,> 100,> 100,–,> 100,–,> 100,–,–,–,–,–,–,–
